Consider one molecule from patent US20250352537A1, “PHARMACEUTICAL COMPOSITIONS OF TRICYCLIC AKR1C3 DEPENDENT KARS INHIBITOR AND METHODS FOR MAKING SAME” (NOVARTIS AG, priority 2022, published 2025).

Bounds are passed on as bounds.

Format in all cases: physicochemical
The nature of data set [1]: Initial stability evaluation of lyophilized solid dispersions (mDSC, UPLC). The note with it: initial purity of Compound (I) 99.3%. As to the method:
The following example illustrates the initial feasibility assessment of an amorphous solid dispersion formulation. An amorphous solid dispersion (ASD) was initially evaluated as a potential formulation for Compound (1). Solid dispersion screening was performed by lyophilization of solid Compound (1) with a polymer. Miscibility trials of Compound (1) were performed with Kollidon® VA64, HPMC-AS-LF, Eudragit® L100-55, and HPMC 603, by conducting a DSC measurement of the lyophilized material to determine if the material was amorphous or crystalline. […] Kollidon® VA64 at both 50% and 40% drug loading recrystallized after 5 weeks. HPMC-AS-LF and Eudragit® L100-55 remained amorphous under stressed conditions. However, HPMC-AS-LF and Eudragit® L100-55 both have significant impurities after 5 weeks until stressed conditions, according to UPLC analysis.

Data set [2] in a line: Hot melt extrusion (HME) thermal stability. The conditions noted are these: extrusion of compound-polymer mixture at temperatures in excess of 160° C. The text has this:
A holt melt extrusion (HME) approach was also attempted.

Data set [3] is described as follows: Supersaturation / desupersaturation of DMSO solution in FaSSIF-V1. The note with it: FaSSIF-V1, 37° C. The protocol: FIG. 1 is a an illustration of Compound (I) desupersaturation profiles in FaSSIF-V1 when added as DMSO solution at drug loads from 100 to 2000 ppmw
The supersaturation potential of Compound (1) was studied by mixing drug dissolved in 1 mL DMSO into 99 mL FaSSIF-V1 stirred at 37° C. (FIG. 1). At higher drug loads of 500, 1000 or 2000 ppmw (or […]) Compound (1) precipitated practically instantaneously and attained a constant steady state concentration of approx. 20 μg/mL or below within 5 minutes.. At the 90 min final sampling the solids were confirmed to be crystalline Compound (1) by XRPD. At lower drug loads, supersaturation was maintained longer, e.g. approx. 110 μg/mL drug dissolved at 5 min at 200 ppmw drug load and approx. 70 μg/mL drug dissolved till 20 min at 100 ppmw drug load. Situation after desupersaturation was similar as described for higher drug loads.

Turning to `O=C1CC2(CCN(C(=O)NCc3ccc(F)cc3)CC2)Nc2ccc(F)cc21` [Compound (I), 6′-fluoro-N-(4-fluorobenzyl)-4′-oxo-3′,4′-dihydro-1′H-spiro[piperidine-4,2′-quinoline]-1-carboxamide], the “UPLC (%)” value came to 99.09% in data set [1] (3 weeks 50° C./75% RH) and 99.05% in data set [1] (5 weeks 50° C./75% RH). Besides, in data set [2], the “stability on hot melt extrusion” value is listed as “thermal degradation”. Further, the results for the drug dissolved result in data set [3] (at 5 min at 200 ppmw drug load) and in data set [3] (till 20 min at 100 ppmw drug load) were “approx. 110 μg/mL” and “approx. 70 μg/mL”, respectively. Further, the steady state concentration in data set [3] (drug loads of 500, 1000 or 2000 ppmw, within 5 minutes) is ≤ 20 µg/mL. The supersaturation potential entry in data set [3] (overall) is given as “rather poorly supersaturating”.
